Measurements from patent publication EP4624465A1, “COMPOUND SERVING AS DDR1 KINASE INHIBITOR, AND MEDICINE” (Nippon Shinyaku Co., Ltd., priority 2022, dated 2024).

Target: DDR1 kinase (Homo sapiens, UniProt Q08345)
Experiment: Evaluation of DDR1 kinase inhibition (LANCE Ultra TR-FRET kinase assay)
Format: biochemical
Set-up: purchased Carna Biosciences 08-113
Settings: DDR1 protein 0.5 nM, LANCE Ultra ULight-poly GAT substrate, 2 hours at room temperature, duplicate; read-out: DDR-1 IC50

Chain of DDR1 kinase (Q08345 19-876 isoform Q08345-2 limits assumed): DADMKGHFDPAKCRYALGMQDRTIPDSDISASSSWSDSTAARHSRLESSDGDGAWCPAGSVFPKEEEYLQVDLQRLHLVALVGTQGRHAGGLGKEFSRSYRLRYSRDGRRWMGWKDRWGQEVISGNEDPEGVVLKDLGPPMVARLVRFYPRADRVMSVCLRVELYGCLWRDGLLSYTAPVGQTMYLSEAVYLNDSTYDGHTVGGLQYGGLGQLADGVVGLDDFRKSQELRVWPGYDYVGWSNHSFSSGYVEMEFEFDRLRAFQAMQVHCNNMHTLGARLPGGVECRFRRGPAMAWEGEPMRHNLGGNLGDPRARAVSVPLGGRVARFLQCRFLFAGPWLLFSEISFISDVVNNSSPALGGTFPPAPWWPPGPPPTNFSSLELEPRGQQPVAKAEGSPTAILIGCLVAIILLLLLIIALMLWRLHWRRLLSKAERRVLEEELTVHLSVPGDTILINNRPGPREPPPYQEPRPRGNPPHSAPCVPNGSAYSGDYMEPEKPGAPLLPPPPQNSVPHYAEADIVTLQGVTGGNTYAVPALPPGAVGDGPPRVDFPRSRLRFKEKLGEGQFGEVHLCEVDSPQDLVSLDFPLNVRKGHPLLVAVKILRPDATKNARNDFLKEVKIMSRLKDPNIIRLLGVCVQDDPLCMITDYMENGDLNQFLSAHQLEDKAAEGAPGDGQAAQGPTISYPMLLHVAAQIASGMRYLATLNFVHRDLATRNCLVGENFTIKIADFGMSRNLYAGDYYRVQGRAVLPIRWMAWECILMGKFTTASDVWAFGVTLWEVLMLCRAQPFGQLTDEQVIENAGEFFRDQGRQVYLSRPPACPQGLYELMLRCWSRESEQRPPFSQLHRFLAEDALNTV

SMILES | IC50 [nM]
Nc1cc(C(=O)N2CC(c3nn(CC(=O)N4CCC[C@H]4C(F)(F)F)c4ccccc34)C2)c(Cl)cn1 [Compound E-210, 2-{3-[1-(2-amino-5-chloropyridine-4-carbonyl)azetidin-3-yl]-1H-indazol-1-yl]-1-[(2S)-2-(trifluoromethyl)pyrrolidin-1-yl]ethan-1-one] | 3.5
Nc1cc(C(=O)N2CC(c3nn(CC(=O)N4CCO[C@@H](C(F)(F)F)C4)c4ccc(Cl)cc34)C2)ccn1 [Compound E-205, 2-{3-[1-(2-aminopyridine-4-carbonyl)azetidin-3-yl]-5-chloro-1H-indazol-1-yl}-1-[(2R)-2-(trifluoromethyl)morpholin-4-yl]ethan-1-one] | 1.6
Nc1cc(C(=O)N2CCC(c3nn(Cc4ccc(C(F)(F)F)nc4)c4cccc(F)c34)CC2)ccn1 [Compound E-134, 4-[4-(4-fluoro-1-([6-(trifluoromethyl)pyridin-3-yl]methyl)-1H-indazol-3-yl)piperidine-1-carbonyl]pyridin-2-amine] | 110
CC1(C)COCCN1C(=O)Cn1nc(C2CN(C(=O)c3cc(N)ncc3F)C2)c2ccccc21 [Compound E-187, 2-{3-[1-(2-amino-5-fluoropyridine-4-carbonyl)azetidin-3-yl]-1H-indazol-1-yl}-1-(3,3-dimethylmorpholin-4-yl)ethan-1-one] | 0.6
Nc1nccc(C(=O)N2CC(c3nn(CC(=O)N4CCO[C@@H](C(F)(F)F)C4)c4ccccc34)C2)n1 [Compound E-215, 2-{3-[1-(2-aminopyrimidine-4-carbonyl)azetidin-3-yl]-1H-indazol-1-yl}-1-[(2R)-2-(trifluoromethyl)morpholin-4-yl]ethan-1-one] | 56
CC1(C)CCCN1C(=O)Cn1nc(C2CN(C(=O)c3ccnc(N)c3)C2)c2c(F)cc(F)cc21 [Compound E-127, 2-{3-[1-(2-aminopyridine-4-carbonyl)azetidin-3-yl]-4,6-difluoro-1H-indazol-1-yl}-1-(2,2-dimethylpyrrolidin-1-yl)ethan-1-one] | 11
Nc1cc(C(=O)N2CC(c3nn(CC4CCC(F)(F)CC4)c4cc(F)cc(F)c34)C2)ccn1 [Compound E-57, 4-(3-{1-[(4,4-difluorocyclohexyl)methyl]-4,6-difluoro-1H-indazol-3-yl}azetidine-1-carbonyl)pyridin-2-amine] | 140
Nc1cc(C(=O)N2CC(c3nn(CC#CC4CC4)c4cc(F)cc(F)c34)C2)ccn1 [Compound E-156] | 12
CC1(C)COCCN1C(=O)Cn1nc(C2CN(C(=O)c3ccnc(N)c3F)C2)c2ccccc21 [Compound E-190, 2-{3-[1-(2-amino-3-fluoropyridine-4-carbonyl)azetidin-3-yl]-1H-indazol-1-yl}-1-(3,3-dimethylmorpholin-4-yl)ethan-1-one] | 7.5
Cc1ccc2c(c1)c(C1CN(C(=O)c3ccnc(N)n3)C1)nn2CC(=O)N(C)CC(F)(F)F [Compound E-288, 2-{3-[1-(2-aminopyrimidine-4-carbonyl)azetidin-3-yl]-5-methyl-1H-indazol-1-yl}-N-methyl-N-(2,2,2-trifluoroethyl)acetamide] | 14
Cc1nc(N)sc1C(=O)N1CC(c2nn(CC(=O)N3CCO[C@@H](C(F)(F)F)C3)c3cc(F)cc(F)c23)C1 [Compound E-173, 2-(3-[1-(2-amino-4-methyl-1,3-thiazole-5-carbonyl)azetidin-3-yl]-4,6-difluoro-1H-indazol-1-yl}-1-[(2R)-2-(trifluoromethyl)morpholin-4-yl]ethan-1-one] | 70
O=C(c1ccncc1Cl)N1CC(c2nn(CC(=O)N3CCC[C@H]3C(F)(F)F)c3cc(F)cc(F)c23)C1 [Compound E-143, 2-{3-[1-(3-chloropyridine-4-carbonyl)azetidin-3-yl]-4,6-difluoro-1H-indazol-1-yl}-1-[(28)-2-(trifluoromethyl)pyrrolidin-1-yl]ethan-1-one] | 4.1
Nc1nccc(C(=O)N2CC(c3nn(CC(=O)N4CCO[C@@H](C(F)(F)F)C4)c4cc(F)cc(F)c34)C2)c1F [Compound E-184, 2-{3-[1-(2-amino-3-fluoropyridine-4-carbonyl)azetidin-3-yl]-4,6-difluoro-1H-indazol-1-yl}-1-[(2R)-2-(trifluoromethyl)morpholin-4-yl]ethan-1-one p-toluenesulfonate] | 3
CC1(C)CCCN1C(=O)Cn1nc(C2CN(C(=O)c3ccnc(N)c3)C2)c2ccccc21 [Compound E-221, 2-{3-[1-(2-aminopyridine-4-carbonyl)azetidin-3-yl]-1H-indazol-1-yl}-1-(2,2-dimethylpyrrolidin-1-yl)ethan-1-one] | 4.4
CN(CC1CC(F)(F)C1)C(=O)Cn1nc(C2CN(C(=O)c3cc(N)ncc3F)C2)c2ccccc21 [Compound E-256, 2-{3-[1-(2-amino-5-fluoropyridine-4-carbonyl)azetidin-3-yl]-1H-indazol-1-yl]-N-[(3,3-difluorocyclobutyl)methyl]-N-methylacetamide] | 2
Nc1cc(C(=O)N2CC(O)(c3nn(CC(=O)N4CCC[C@H]4C(F)(F)F)c4ccccc34)C2)c(F)cn1 [Compound E-281, 2-{3-[1-(2-amino-5-fluoropyridine-4-carbonyl)-3-hydroxyazetidin-3-yl]-1H-indazol-1-yl}-1-[(28)-2-(trifluoromethyl)pyrrolidin-1-yl]ethan-1-one] | 11

SMILES | IC50 [nM]
O=C(c1ccc2[nH]ncc2c1)N1CC(c2nn(CC(=O)N3CCC[C@H]3C(F)(F)F)c3cc(F)cc(F)c23)C1 [Compound E-140, 2-{4,6-difluoro-3-[1-(1H-indazole-5-carbonyl)azetidin-3-yl]-1H-indazol-1-yl}-1-[(28)-2-(trifluoromethyl)pyrrolidin-1-yl]ethan-1-one] | 0.8
Cc1ccc2c(c1)c(C1CN(C(=O)c3ccnc(N)n3)C1)nn2CC(=O)N1CCC[C@H]1C(F)(F)F [Compound E-292, 2-{3-[1-(2-aminopyrimidine-4-carbonyl)azetidin-3-yl]-5-methyl-1H-indazol-1-yl]-1-[(2S)-2-(trifluoromethyl)pyrrolidin-1-yl]ethan-1-one] | 2.3
CN(CC(F)(F)F)C(=O)Cn1nc(C2CN(C(=O)c3ccnc(N)n3)C2)c2cc(F)c(F)cc21 [Compound E-282, 2-{3-[1-(2-aminopyrimidine-4-carbonyl)azetidin-3-yl]-5,6-difluoro-1H-indazol-1-yl}-N-methyl-N-(2,2,2-trifluoroethyl)acetamide] | 52
Cc1c(C(=O)N2CC(c3nn(CC(=O)N4CCC[C@H]4C(F)(F)F)c4ccnc(C)c34)C2)ccnc1N [Compound E-94] | 150
CC1(C)CN(C(=O)Cn2nc(C3CN(C(=O)c4cc(N)ncc4F)C3)c3c(F)cc(F)cc32)CCO1 [Compound E-176, 2-{3-[1-(2-amino-5-fluoropyridine-4-carbonyl)azetidin-3-yl)-4,6-difluoro-1H-indazol-1-yl}-1-(2,2-dimethylmorpholin-4-yl)ethan-1-one] | 8.4
Nc1cc(C(=O)N2CC(c3nn(Cc4noc(-c5ccccc5F)n4)c4cncc(F)c34)C2)ccn1 [Compound E-160, 4-[3-(4-fluoro-1-{[5-(2-fluorophenyl)-1,2,4-oxadiazol-3-yl]methyl}-1H-pyrazolo[3,4-c]pyridin-3-yl)azetidine-1-carbonyl]pyridin-2-amine] | 140
CC(C)N(C(=O)Cn1nc(C2CN(C(=O)c3cc(N)ncc3F)C2)c2ccccc21)C(C)C [Compound E-267, 2-{3-[1-(2-amino-5-fluoropyridine-4-carbonyl)azetidin-3-yl]-1H-indazol-1-yl}-N,N-bis(propan-2-yl)acetamide] | 6.2
CCN(CC(F)(F)F)C(=O)Cn1nc(C2CN(C(=O)c3cc(N)ncc3F)C2)c2ccccc21 [Compound E-249, 2-{3-[1-(2-amino-5-fluoropyridine-4-carbonyl)azetidin-3-yl]-1H-indazol-1-yl}-N-ethyl-N-(2,2,2-trifluoroethyl)acetamide] | 3.5
Nc1cc(C(=O)N2CC(c3nn(CC#Cc4ccccc4)c4cc(F)cc(F)c34)C2)ccn1 [Compound E-152, 4-{3-[4,6-difluoro-1-(3-phenylprop-2-yn-1-yl)-1H-indazol-3-yl]azetidine-1-carbonyl)pyridin-2-amine] | 90
Nc1cc(C(=O)N2CC(c3nn(Cc4noc(C5(C(F)(F)F)CC5)n4)c4cncc(F)c34)C2)ccn1 [Compound E-14, 4-{3-[4-fluoro-1-({5-[1-(trifluoromethyl)cyclopropyl]-1,2,4-oxadiazol-3-yl)methyl)-1H-pyrazolo[3,4-c]pyridin-3-yl]azetidine-1-carbonyl}pyridin-2-amine] | 5.1
Nc1cc(C(=O)N2CC(c3nn(CC(=O)N4CCC5(COC5)C4)c4ccccc34)C2)c(F)cn1 [Compound E-232, 2-{3-[1-(2-amino-5-fluoropyridine-4-carbonyl)azetidin-3-yl]-1H-indazol-1-yl}-1-{2-oxa-6-azaspiro[3.4]octan-6-yl}ethan-1-one] | 38
Nc1cc(C(=O)N2CC(c3nn(Cc4ccc(C(F)(F)F)cn4)c4cncc(F)c34)C2)ccn1 [Compound E-150] | 350
Cc1c(C(=O)N2CC(c3nn(CC(=O)N4CCC[C@H]4COC(F)(F)F)c4cncc(F)c34)C2)ccnc1N [Compound E-44, 2-{3-[1-(2-amino-3-methylpyridine-4-carbonyl)azetidin-3-yl]-4-fluoro-1H-pyrazolo[3,4-c]pyridin-1-yl]-1-[(2S)-2-[(trifluoromethoxy)methyl]pyrrolidin-1-yl]ethan-1-one di-p-toluenesulfonate] | 9.2
Nc1cc(C(=O)N2CC(c3nn(CC(=O)N4CCC[C@H]4COC(F)(F)F)c4cc(F)cc(F)c34)C2)c(F)cn1 [Compound E-175, 2-{3-[1-(2-amino-5-fluoropyridine-4-carbonyl)azetidin-3-yl]-4,6-difluoro-1H-indazol-1-yl}-1-[(2S)-2-[(trifluoromethoxy)methyl]pyrrolidin-1-yl]ethan-1-one] | 0.5
COC[C@@H]1CCCN1C(=O)Cn1nc(C2CN(C(=O)c3cc(N)ncc3F)C2)c2c(F)cc(F)cc21 [Compound E-179, 2-{3-[1-(2-amino-5-fluoropyridine-4-carbonyl)azetidin-3-yl]-4,6-difluoro-1H-indazol-1-yl}-1-f(2S)-2-(methoxymethyl)pyrrolidin-1-yllethan-1-one] | 2.9
